Results from paper PMC10618743 (Cancer Discovery, 2023).

Tests used:
[1] = system: pAKT (S473) in panel of human tumor cell lines harboring PI3Kα kinase-domain mutations and SKBR3; assay: pAKT (S473) HTRF, human tumor cell line panel; format: cell-based; conditions: SK-BR-3, 1 hour treatment, read-out: pAKT IC50 values across the panel of cell lines
Experimental: (§1) A 384-well phospho-AKT (S473) HTRF (Homogenous Time-Resolve Fluorescence; PerkinElmer, #64AKSPEH) assay was used for target engagement. Each well was seeded with cell numbers indicated in Supplementary Table S3 in a volume of 12.5 μL in complete, phenol red-free media and then treated for 1 hour at 37°C with 5% CO2 before reading on a PHERAstar plate reader.

[2] = system: pAKT (S473) in BT20 cells; assay: pAKT (S473) HTRF; format: cell-based; conditions: Homo sapiens, BT-20; BT20, H1047R + P539R; 1 hour; read-out: pAKT HTRF GMean IC50 (95% CI)
Experimental: as §1

[3] = system: pAKT (S473) in CAL148 cells; assay: pAKT (S473) HTRF; format: cell-based; conditions: Homo sapiens, CAL-148; CAL148, H1047R + D350N; 1 hour; read-out: pAKT HTRF GMean IC50 (95% CI)
Experimental: as §1

[4] = system: pAKT (S473) in CAL33 cells; assay: pAKT (S473) HTRF; format: cell-based; conditions: Homo sapiens, CAL-33; CAL33, H1047R; 1 hour; read-out: pAKT HTRF GMean IC50 (95% CI)
Experimental: as §1

[5] = system: pAKT (S473) in DETROIT562 cells; assay: pAKT (S473) HTRF; format: cell-based; conditions: Homo sapiens, Detroit 562; DETROIT562, H1047R; 1 hour; read-out: pAKT HTRF GMean IC50 (95% CI)
Experimental: as §1

[6] = system: pAKT (S473) in EFM19 cells; assay: pAKT (S473) HTRF; format: cell-based; conditions: Homo sapiens, EFM-19; EFM19, H1047L; 1 hour; read-out: pAKT HTRF GMean IC50 (95% CI)
Experimental: as §1

[7] = system: pAKT (S473) in GP2D cells; assay: pAKT (S473) HTRF; format: cell-based; conditions: Homo sapiens, H1047L, 1 hour, read-out: pAKT HTRF GMean IC50 (95% CI)
Experimental: as §1

[8] = system: pAKT (S473) in HCC1954 cells; assay: pAKT (S473) HTRF; format: cell-based; conditions: Homo sapiens; HCC1954, H1047R; 1 hour; read-out: pAKT HTRF GMean IC50 (95% CI)
Experimental: as §1

[9] = system: pAKT (S473) in NCIH1048 cells; assay: pAKT (S473) HTRF; format: cell-based; conditions: Homo sapiens, NCI-H1048; NCIH1048, H1047R + K111R; 1 hour; read-out: pAKT HTRF GMean IC50 (95% CI)
Experimental: as §1

[10] = system: pAKT (S473) in OAW42 cells; assay: pAKT (S473) HTRF; format: cell-based; conditions: Homo sapiens, OAW-42; OAW42, H1047L; 1 hour; read-out: pAKT HTRF GMean IC50 (95% CI)
Experimental: as §1

[11] = system: pAKT (S473) in SKBR3 cells; assay: pAKT (S473) HTRF; format: cell-based; conditions: Homo sapiens, SK-BR-3; SKBR3, WT PI3Kα; 1 hour; read-out: pAKT HTRF GMean IC50 (95% CI)
Experimental: as §1

[12] = system: pAKT (S473) in T47D cells; assay: pAKT (S473) HTRF; format: cell-based; conditions: Homo sapiens, 1 h, read-out: pAKT HTRF GMean IC50 (95% CI)
Experimental: as §1

CAL148 cells = assay: Cell viability CellTiter-Glo; format: cell-based; conditions: Homo sapiens, CAL-148; CAL148, H1047R + D350N; 72 hours; read-out: CTGlo GMean GI50 (95% CI)
Experimental: (§2) Cell viability was measured using CellTiter-Glo (Promega, #G9243). Indicated cell lines were seeded according to Supplementary Table S3 in 50 μL of media in 384-well plates, with 72 hours of treatment at 37°C with 5% CO2.

GP2D cells = assay: Cell viability CellTiter-Glo; format: cell-based; conditions: Homo sapiens, H1047L, 72 hours, read-out: CTGlo GMean GI50 (95% CI)
Experimental: as §2

[13] = system: insulin-mediated glucose uptake in primary human subcutaneous adipocytes; assay: Human adipocyte 3H-2-deoxyglucose uptake; format: cell-based
Experimental: Primary human subcutaneous adipocytes were treated with a test compound or vehicle for 1 hour followed by the addition of 10 nmol/L insulin and ^3H-2-deoxyglucose (Zen Bio Durham, assay #CA-25, Lot #SL0071). Cytochalasin B treatment controlled for nonspecific glucose uptake. Corrected counts per minute were determined using a scintillation counter.

Plasma exposure in mice = format: in vivo, mouse
[14] = Insulin tolerance test (ITT) and oral glucose tolerance test (OGTT); format: in vivo, mouse; conditions: 50 mg/kg dose levels
[15] = system: CAL-33 (H1047R PI3Kα) HNSCC xenograft; assay: CAL-33 xenograft efficacy study; format: in vivo, mouse; conditions: Alpelisib 50 mg/kg QD, Day 28
[16] = system: pAKT (S473) in CAL-33 tumors; assay: CAL-33 tumor PK/PD, pAKT/AKT Western blot; format: in vivo, mouse; conditions: 50 mg/kg q.d.
[17] = system: glucose oxidation in tumor and skeletal muscle; assay: [U-13C]-glucose metabolic profiling in CAL-33 tumor-bearing mice; format: in vivo, mouse; conditions: alpelisib 50 mg/kg; 30 minutes after [U-13C]-glucose
[18] = system: Detroit 562 HNSCC xenograft; assay: Detroit 562 xenograft efficacy study; format: in vivo, mouse
[19] = system: GP2d colon cancer xenograft; assay: GP2d xenograft efficacy study; format: in vivo, mouse
[20] = system: NCI-H1048 lung carcinoma xenograft; assay: NCI-H1048 xenograft efficacy study; format: in vivo, mouse; conditions: Alpelisib 50 mg/kg QD, Day 23
[21] = system: HCC1954 breast cancer xenograft; assay: HCC1954 xenograft efficacy study; format: in vivo, mouse; conditions: Alpelisib 50 mg/kg QD, Day 28
[22] = system: T47D ER+HER2- breast cancer xenograft; assay: T47D xenograft efficacy study; format: in vivo, mouse; conditions: Alpelisib 50 mg/kg QD, Day 20
[23] = patients; cited from earlier work
[24] = STX-478 100 mg/kg q.d., alpelisib 50 mg/kg q.d.

Q: For `Cc1nc(NC(=O)N2CCC[C@H]2C(N)=O)sc1-c1ccnc(C(C)(C)C(F)(F)F)c1` [alpelisib], which IC50 [1] is on record?
A: Its IC50 is 28 to 268 nM.

Q: What about the IC50 [2] of the same molecule?
A: The IC50 was 136 nM.

Q: And the IC50 [3]?
A: The IC50 was 268 nM.

Q: What about the IC50 [4] of the same molecule?
A: Its IC50 is 71 nM.

Q: And the IC50 [5]?
A: The IC50 was 125 nM.

Q: What about the IC50 [6] of the same molecule?
A: The IC50 was 43 nM.

Q: And the IC50 [7]?
A: The IC50 was 66 nM.

Q: And the IC50 [8]?
A: Its IC50 is 256 nM.

Q: And the IC50 [9]?
A: Its IC50 is 28 nM.

Q: What about the IC50 [10] of the same molecule?
A: The IC50 was 82 nM.

Q: What about the IC50 [11] of the same molecule?
A: The IC50 was 41 nM.

Q: What about the IC50 [12] of the same molecule?
A: The IC50 was 58 nM.

Q: And the GI50 (CAL148 cells)?
A: The GI50 was 962 nM.

Q: What about the GI50 (GP2D cells) of the same molecule?
A: The GI50 was 298 nM.

Q: What about the glucose uptake inhibition ([13]; 10 μmol/L) of the same molecule?
A: The glucose uptake inhibition was “nearly complete inhibition”.

Q: What about the Emax ([13]; Homo sapiens, Adipocyte, 10 nmol/L insulin, read-out: maximum effect (Emax) for glucose uptake inhibition) of the same molecule?
A: Its Emax is 88%.

Q: And the “mouse exposure over exposure of maximum approved human dose” value (Plasma exposure in mice; 50 mg/kg q.d. in mice)?
A: Its value is “approximately 2 fold”.

Q: What about the AUC (Plasma exposure in mice; mouse, plasma, oral, mice, 50 mg/kg q.d.) of the same molecule?
A: Its AUC is ~75000 ng·h/mL.

Q: And the insulin resistance [14]?
A: The insulin resistance was “overt insulin resistance”.

Q: What about the “TGI (%)” value [15] of the same molecule?
A: The value was 79%.

Q: And the “average pAKT suppression (treated/vehicle AUC1–12h)” value [16]?
A: The value was 66%.

Q: What about the “glucose oxidation in skeletal muscle” value [17] of the same molecule?
A: Its value is “reductions in glucose oxidation in the skeletal muscle”.

Q: And the “TGI (%)” value ([18]; Alpelisib 50 mg/kg QD, Day 22)?
A: The value was 96%.

Q: What about the tumor regressions [18, 24] of the same molecule?
A: The tumor regressions was “tumor regressions in five of the nine study animals”.

Q: And the “TGI (%)” value ([19]; Alpelisib 50 mg/kg QD, Day 28)?
A: The value was 79%.

Q: And the “tumor regressions (waterfall plot)” value [19, 24]?
A: The value was “no regression”.

Q: And the “TGI (%)” value [20]?
A: Its value is 87%.

Q: What about the “TGI (%)” value [21] of the same molecule?
A: Its value is 77%.

Q: And the “TGI (%)” value [22]?
A: The value was 100%.

Q: What about the “rate of permanent discontinuations” value [23] of the same molecule?
A: The value was ≤ 46%.

Q: What about the “rate of safety-related dose reduction” value [23] of the same molecule?
A: The value was “up to 42%”.
